Test results reported in patent US7354726B2, “Screening method” (Takeda Pharmaceutical Company Limited, priority 2001, dated 2008).

Columns and labels:
TGR5 [1] = biological target: T1, TGR5 (Homo sapiens, UniProt Q8TDU6); test: cAMP production in TGR5 expressing CHO cells (CHO-TGR5); assay type: cell-based; parameters: expressed in transfected cells; conditions: CHO-TGR5, 20 minutes; potency in order TLCA, LCA, DCA, CDCA, CA
T1 sequence (Q8TDU6 1-330): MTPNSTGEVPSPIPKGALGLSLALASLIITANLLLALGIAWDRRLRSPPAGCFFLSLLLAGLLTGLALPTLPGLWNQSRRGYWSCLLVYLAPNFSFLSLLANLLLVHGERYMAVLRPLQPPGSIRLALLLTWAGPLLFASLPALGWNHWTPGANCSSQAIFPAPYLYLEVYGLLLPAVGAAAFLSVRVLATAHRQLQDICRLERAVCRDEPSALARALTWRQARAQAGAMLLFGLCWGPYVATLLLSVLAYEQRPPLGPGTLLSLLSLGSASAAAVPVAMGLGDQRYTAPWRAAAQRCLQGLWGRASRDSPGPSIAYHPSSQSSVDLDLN
Procedure: The cells were washed twice with assay buffer (DMEM supplemented with 0.1% bovine serum albumin and 0.2 mM 3-isobutyl-1-methylxanthine (IBMX)) and preincubated for 30 minutes. After washing the cells twice, a sample diluted with assay buffer was added to the cells, and the cells were incubated for 20 minutes. The culture supernatant was discarded, and by cAMP Screen System (ABI), cAMP production level was measured. […] The cAMP production level was represented by % for positive control as 100%.

mouse TGR5 = biological target: T2, mouse TGR5 (Mus musculus, UniProt Q80SS6); test: CRE-luciferase reporter assay in CHO-mock cells co-expressing Gi and mouse TGR5; assay type: cell-based; conditions: 10 μM bile acid, mouse TGR5, versus group with no bile acid (Base)
T2 construct: expressed in transfected cells; host or cells: CHO-mock cells, transient, with Gi plasmid and reporter plasmid
T2 sequence (Q80SS6 1-329): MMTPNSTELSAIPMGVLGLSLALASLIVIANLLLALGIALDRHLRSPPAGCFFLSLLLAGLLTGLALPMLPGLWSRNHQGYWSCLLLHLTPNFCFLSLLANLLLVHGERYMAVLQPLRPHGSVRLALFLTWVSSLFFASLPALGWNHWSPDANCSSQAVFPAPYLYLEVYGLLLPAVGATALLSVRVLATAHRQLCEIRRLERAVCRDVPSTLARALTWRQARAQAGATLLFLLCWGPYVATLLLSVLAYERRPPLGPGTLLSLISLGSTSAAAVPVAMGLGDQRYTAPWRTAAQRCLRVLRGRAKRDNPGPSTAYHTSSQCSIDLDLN
Procedure: (§1) Alternatively, an assay under condition wherein forskolin was added to the assay buffer at the final concentration of 2 μM, was performed in the same way. […] After completion of incubation, the assay buffer was removed from each well. Then 50 μl of luminescent substrate for PicaGene LT2.0 (Toyo Ink) was added to each well.
(§2) The mixing ratio of these three plasmids is, where the total volume is 11 μl, appropriate for 1 to 6, preferably 1 to 3 of Gi.
(§3) For a positive control of reporter gene expression, forskolin (FSSK, 2 μM) was used.

bovine TGR5 = biological target: T3, bovine TGR5 (Bos taurus, UniProt Q862A9); test: CRE-luciferase reporter assay in CHO-mock cells co-expressing Gi and bovine TGR5; assay type: cell-based; conditions: 10 μM bile acid, bovine TGR5, versus group with no bile acid (Base)
T3 construct: expressed in transfected cells; host or cells: CHO-mock cells, transient, with Gi plasmid and reporter plasmid
T3 sequence (Q862A9 1-329): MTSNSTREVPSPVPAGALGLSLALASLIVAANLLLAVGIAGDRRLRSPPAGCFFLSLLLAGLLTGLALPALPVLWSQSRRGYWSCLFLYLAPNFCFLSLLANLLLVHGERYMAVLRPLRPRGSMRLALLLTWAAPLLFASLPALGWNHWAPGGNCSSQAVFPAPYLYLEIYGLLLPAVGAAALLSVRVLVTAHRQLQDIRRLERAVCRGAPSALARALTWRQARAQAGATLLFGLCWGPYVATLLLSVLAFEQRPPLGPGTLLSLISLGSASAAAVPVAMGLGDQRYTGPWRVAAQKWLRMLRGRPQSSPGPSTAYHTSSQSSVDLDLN
Procedure: as §1, §2, §3

TGR5 [2] = biological target: T1, TGR5; test: CRE-luciferase reporter assay in CHO-mock cells co-expressing Gi and human TGR5; assay type: cell-based; parameters: expressed in transfected cells; host or cells: CHO-mock cells (CHO(dhfr-) transformed with pAKKO-111H), transient, with Gi plasmid and reporter plasmid; conditions: 10 μM bile acid, human TGR5, versus group with no bile acid (Base)
Procedure: as §1, §2, §3

rat TGR5 = biological target: T4, rat TGR5 (Rattus norvegicus, UniProt Q80T02); test: CRE-luciferase reporter assay in CHO-mock cells co-expressing Gi and rat TGR5; assay type: cell-based; conditions: 10 μM bile acid, rat TGR5, versus group with no bile acid (Base)
T4 construct: expressed in transfected cells; host or cells: CHO-mock cells, transient, with Gi plasmid and reporter plasmid
T4 sequence (Q80T02 1-329): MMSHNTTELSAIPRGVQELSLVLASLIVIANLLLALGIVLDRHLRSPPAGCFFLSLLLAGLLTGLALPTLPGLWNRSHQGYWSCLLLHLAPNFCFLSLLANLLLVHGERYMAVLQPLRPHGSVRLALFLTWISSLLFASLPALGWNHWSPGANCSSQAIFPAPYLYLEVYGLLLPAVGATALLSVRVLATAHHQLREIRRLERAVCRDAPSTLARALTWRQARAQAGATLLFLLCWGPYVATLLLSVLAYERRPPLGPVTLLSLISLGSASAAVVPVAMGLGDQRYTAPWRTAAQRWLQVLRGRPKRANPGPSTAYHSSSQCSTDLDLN
Procedure: as §1, §2, §3

rabbit TGR5 = biological target: T5, rabbit TGR5 (Oryctolagus cuniculus, UniProt Q862A8); test: CRE-luciferase reporter assay in CHO-mock cells co-expressing Gi and rabbit TGR5; assay type: cell-based; conditions: 10 μM bile acid, rabbit TGR5, versus group with no bile acid (Base)
T5 construct: expressed in transfected cells; host or cells: CHO-mock cells, transient, with Gi plasmid and reporter plasmid
T5 sequence (Q862A8 1-330): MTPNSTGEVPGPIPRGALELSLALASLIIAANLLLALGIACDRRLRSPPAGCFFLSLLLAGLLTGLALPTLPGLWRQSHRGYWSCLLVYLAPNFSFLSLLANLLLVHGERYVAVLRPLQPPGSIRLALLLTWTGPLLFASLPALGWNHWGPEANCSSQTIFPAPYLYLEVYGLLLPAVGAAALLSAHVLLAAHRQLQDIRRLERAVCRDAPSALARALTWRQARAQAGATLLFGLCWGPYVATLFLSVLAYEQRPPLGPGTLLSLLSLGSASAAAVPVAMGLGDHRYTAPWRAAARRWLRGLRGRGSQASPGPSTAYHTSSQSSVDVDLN
Procedure: as §1, §2, §3

[3] = tested on: rabbit alveolus macrophage; test: Phagocytotic activity of rabbit alveolus macrophage (yeast uptake, fuchsin staining); conditions: 100 μM, 16 hours
Procedure: From rabbit (NZW, female, approximately 2.5 to 3.0 kg of weight), under anesthesia, serum and lung were collected. By washing with PBS (phosphate-buffered saline) transfused through trachea, suspension containing alveolus macrophage in the lung was recovered. After washing the obtained cells with further PBS, the cells were suspended in medium (DMEM supplemented with 2% FBS, 0.1 mM non-essential amino acids, 50 μg/ml streptomycin, 50 U/ml penicillin and 50 μg/ml gentamicin; any component from GibcoBRL), loaded on Ficoll-Paque Plus (Amersham Pharmacia), isolator for mononuclear cells, and treated with centrifugation to remove erythrocyte. […] Then the cells were further cultured for 16 hours. Fifty μl of serum obtained from the same rabbit, and 0.8×10^8/ml of yeast suspension sterilized by heating, were added to the culture. Subsequently, the cell were cultured under 5% CO2 for 40 minutes. After adding 60 μl of 0.1% fuchsin solution (Wako Pure Chemicals) to the culture, the cells were peeled and were centrifuged. The suspension was observed by microscope.

| SMILES | cAMP production (TGR5 [1]) | luciferase activity (reporter gene expression level) (mouse TGR5) | luciferase activity (reporter gene expression level) (bovine TGR5) | luciferase activity (reporter gene expression level) (TGR5 [2]) | luciferase activity (reporter gene expression level) (rat TGR5) | luciferase activity (reporter gene expression level) (rabbit TGR5) | phagocytotic activity of macrophage [3] |
| --- | --- | --- | --- | --- | --- | --- | --- |
| C[C@H](CCC(=O)O)[C@H]1CC[C@H]2[C@@H]3[C@H](O)C[C@@H]4C[C@H](O)CC[C@]4(C)[C@H]3C[C@H](O)[C@]12C [CA, cholic acid] | increase of cAMP production, which is dependent on concentration |  |  |  |  |  |  |
| C[C@H](CCC(=O)O)[C@H]1CC[C@H]2[C@@H]3[C@H](O)C[C@@H]4C[C@H](O)CC[C@]4(C)[C@H]3CC[C@]12C [CDCA, chenodeoxycholic acid] | increase of cAMP production, which is dependent on concentration | higher luciferase activity than that of a group with no bile acid | higher luciferase activity than that of a group with no bile acid | higher luciferase activity than that of a group with no bile acid | higher luciferase activity than that of a group with no bile acid | higher luciferase activity than that of a group with no bile acid |  |
| C[C@H](CCC(=O)NCC(=O)O)[C@H]1CC[C@H]2[C@@H]3CC[C@@H]4C[C@H](O)CC[C@]4(C)[C@H]3CC[C@]12C [GLCA, glycolithocholic acid] |  |  |  |  |  |  | significantly decreased |
